# Reference: publication PMC7520419 (The AAPS Journal, 2020)
# Where two headings read alike, the source gives them in different places.
# Assays:
# [1] = Solubility measurement in aqueous buffer solutions; conditions: pH 6.5, aqueous buffer, thermodynamic from solid
# Experimental: (§1) The solubility of the drug substances was determined in biorelevant media as well as in aqueous buffers at different pH. Fasted state simulated gastric fluid (FaSSGF) ([37]), fasted state simulated intestinal fluid (FaSSIF-V2) ([38]), and fed state simulated intestinal fluid (FeSSIF-V2) ([39]) were prepared according to the instructions provided by Biorelevant (Biorelevant.com Ltd., London, UK). […] For neutral compounds, solubility was determined at pH 2, pH 4, and pH 7.
# (§2) For freely soluble compounds, the extent of solubilization was measured only up to 10 mg/mL.
# [2] = PBPK food effect modeling (Simcyp V17.1 and/or GastroPlus V9.5; Model 1 / Model 2); set-up: species or system human
# [3] = set-up: Food Effect (graded symbols): key to the marks not given beside the values; conditions: cited from earlier work
# Caco-2 = conditions: cited from earlier work
# [4] = Solubility measurement in biorelevant media (FaSSIF-V2, FeSSIF-V2); conditions: 37 °C, thermodynamic from solid
# Experimental: as §1, §2
# BCS classification = format: physicochemical
# [5] = Effective human jejunum permeability (Peff,man) used in the PBPK model; format: in vitro ADME; conditions: human, 1 h
# Experimental: Permeation rates of the compounds, including reference compounds, were measured in the apical-to-basolateral (AB) direction. The donor and receiver wells were sampled immediately after application of the compound to the donor well to determine baseline concentrations, and again after 1 h. Quantification was done using high-performance liquid chromatography combined with mass spectrometry (HPLC-MS/MS) analysis and monolayer integrity was verified by analyzing the receiver samples for LuY fluorescence in a plate reader.
# physchem [6] = conditions: pH 6.5, aqueous buffer, thermodynamic from solid
# Experimental: as §1, §2
# physchem [7] = conditions: 37 °C, thermodynamic from solid
# Experimental: as §1, §2
# [8] = Model 1, fasted, ref published clinical data (Table I)
# [9] = Model 1, fed, ref published clinical data (Table I)
# [10] = Model 1, ref published clinical data (Table I)
# [11] = Model 2, fasted, ref published clinical data (Table I)
# [12] = Model 2, fed, ref published clinical data (Table I)
# [13] = Model 2, ref published clinical data (Table I)
structure (smiles),measurement,setting,value
Cc1ccc(Nc2nccc(N(C)c3ccc4c(C)n(C)nc4c3)n2)cc1S(N)(=O)=O [Pazopanib],solubility,[1],0.5 µg/mL
same,AUC Ratio of Ratios (Sim'd / Obs'd),[2]; Model 1,0.13
same,Cmax Ratio of Ratios (Sim'd / Obs'd),[2]; Model 1,0.12
same,AUC Ratio of Ratios (Sim'd / Obs'd),[2]; Model 2,0.24
same,Cmax Ratio of Ratios (Sim'd / Obs'd),[2]; Model 2,0.44
same,fasted bioavailability,[3]; 800 mg dose,~ 21%
same,"fasted bioavailability, range",[3]; 800 mg dose,14–39%
same,increase in AUC0-72h with a high-fat meal,[3]; 800 mg dose,2.3 fold
same,increase in Cmax with a high-fat meal,[3]; 800 mg dose,2.1 fold
same,increase in AUC0-72h with a high-fat meal,"[3]; 800 mg dose, listed as pazopanib",approximately 2.3 fold
same,Observed AUC(0-inf) Fasted,[3]; [8],824 µg·h/mL
same,Observed Cmax Fasted,[3]; [8],20700 ng/mL
same,Observed AUC(0-inf) Fed,[3]; [9],2020 µg·h/mL
same,Observed Cmax Fed,[3]; [9],45200 ng/mL
same,Observed AUC Ratios (Fed/Fasted),[3]; [10],2.45
same,Observed Cmax Ratios (Fed/Fasted),[3]; [10],2.19
same,Observed AUC(0-inf) Fasted,[3]; [11],824 µg·h/mL
same,Observed Cmax Fasted,[3]; [11],20700 ng/mL
same,Observed AUC(0-inf) Fed,[3]; [12],2020 µg·h/mL
same,Observed Cmax Fed,[3]; [12],45200 ng/mL
same,Observed AUC Ratios (Fed/Fasted),[3]; [13],2.45
same,Observed Cmax Ratios (Fed/Fasted),[3]; [13],2.19
same,Food Effect,"[3]; clinically observed PK change (AUC, Cmax) fed vs fasted, compiled by literature search",Positive (positive if the ratio of fed > fasted)
same,Food Effect,"[3]; direction, AUC and/or Cmax ratio fed to fasted, BE criteria 0.8–1.25, ref drug label",Positive (positive if the ratio of fed > fasted)
same,Apparent permeability (Caco-2),"Caco-2; not generated within this working group, ref Table I",16.9 (Caco-2)^^ × 10^−6 cm/s
same,solubility,"[4]; FaSSIF-V2 (fasted state simulated intestinal fluid), FaSSIF solubility",1.2 µg/mL
same,solubility,"[4]; FeSSIF-V2 (fed state simulated intestinal fluid), FeSSIF solubility",2.8 µg/mL
same,BCS,BCS classification,II/IV
CCC[C@H](NC(=O)[C@@H]1[C@H]2CCC[C@H]2CN1C(=O)[C@@H](NC(=O)[C@@H](NC(=O)c1cnccn1)C1CCCCC1)C(C)(C)C)C(=O)C(=O)NC1CC1 [Telaprevir],AUC Ratio of Ratios (Sim'd / Obs'd),[2]; Model 1,0.42
same,Cmax Ratio of Ratios (Sim'd / Obs'd),[2]; Model 1,0.26
same,AUC Ratio of Ratios (Sim'd / Obs'd),[2]; Model 2,0.66
same,Cmax Ratio of Ratios (Sim'd / Obs'd),[2]; Model 2,0.44
same,Food Effect (graded symbols),"[3]; human, in vivo",+++
same,Observed AUC Ratios (Fed/Fasted),"[3]; human, in vivo",3.71
same,Observed AUC(0-inf) Fasted,"[3]; human, in vivo",3.58 µg·h/mL
same,Observed AUC(0-inf) Fed,"[3]; human, in vivo",13.3 µg·h/mL
same,Observed Cmax Fasted,"[3]; human, in vivo",349 ng/mL
same,Observed Cmax Fed,"[3]; human, in vivo",2080 ng/mL
same,Observed Cmax Ratios (Fed/Fasted),"[3]; human, in vivo",5.96
same,Effective permeability,[5],140 ×10⁻⁶ cm/s
same,solubility,physchem [6],85 µg/mL
same,Apparent permeability (Caco-2),Caco-2; Caco-2,4.4 (Caco-2)^^ × 10^−6 cm/s
same,solubility,physchem [7]; FaSSIF solubility,120 µg/mL
same,solubility,physchem [7]; FeSSIF solubility,80 µg/mL
